Experimental data as given in article PMC10004634 (PLOS ONE, 2023).

Key:
B-cells in human PBMC = assay: PBMC stimulation assay, anti-IgM-stimulated B-cell activation (CD69); assay type: cell-based; conditions: anti-IgM 1 μg/mL, 22 h, read-out: IC50 of CD69 inhibition, anti-IgM-stimulated B-cell activation
Method: (§1) After culturing, the stimulated cells were stained with fluorescently labeled CD3, CD20, and CD69 antibodies. B-cells (identified by gating CD20-positive and CD3-negative cells) and T-cells (identified by gating CD3-positive and CD20-negative cells) were analyzed by flow cytometry to monitor the expression of CD69. […] GraphPad Prism version 5.04 (GraphPad Software, Inc., San Diego, CA, USA) and its base settings were used for initial values and convergence conditions.

T-cells in human PBMC = assay: PBMC stimulation assay, anti-CD3/CD28-stimulated T-cell activation (CD69); assay type: cell-based; conditions: 16 h, up to the highest concentration of 10 μM
Method: as §1

[1] = system: BT system (B cells, peripheral blood mononuclear cells); assay: BioMAP Diversity PLUS profiling, BT system; assay type: cell-based, human; conditions: 120, 370, 1100, 3300 nM
Method: (§2) In brief, cultures with one or more primary cell types from healthy human donors were treated with sets of stimulators specific to the cell subsets, and the optimized biomarker readouts for each system were measured by ELISA and other techniques, as listed in S1 Table. The assays included positive and negative controls as well as vehicle control. Results are presented as the log-transformed ratio of biomarker readouts for tirabrutinib-treated samples to vehicle controls.

[2] = system: other BioMAP systems such as the T-cell and fibroblast activation systems; assay: BioMAP Diversity PLUS profiling, other evaluation systems; assay type: cell-based, human; conditions: 120, 370, 1100, 3300 nM
Method: as §2

TMD8 cells = assay: Western blot of BTK downstream signaling (p-PLCγ2, p-ERK1/2, p-AKT, p-IκBα); assay type: cell-based, human
Method: (§3) After culturing, cells were harvested and lysed with cell lysis buffer (Cell Signaling Technology, Inc.) containing 1 mM AEBSF (Calbiochem, #101500). As a positive control of BTK autophosphorylation for western blot analysis, TMD8 cells were treated with hydrogen peroxide (H2O2; final concentration: 6 mM) for 10 min, harvested as a control sample, and then lysed with the cell lysis buffer.
(§4) Each mixture of cells and cell lysis buffer was incubated on ice for 5 min, then centrifuged at 13400 × g and 4°C for 10 min. Total lysates were loaded on 4%–12% SDS-PAGE (Bio-Rad) and transferred to a polyvinylidene difluoride (PVDF) membrane (Immobilon-P Transfer Membrane, Millipore Corporation). The blot was incubated in Tris-buffered saline with Tween 20 (TBS-T, Cell Signaling Technology, Inc.) containing 2 w/v% ECL Advance Blocking Agent (GE Healthcare Life Sciences, b) for 1 h at room temperature. The blocked PVDF membranes were immersed in TBS-T and washed three times with shaking at room temperature for 10 min. The membrane was incubated with primary antibody in TBS-T containing 2 w/v% ECL Advance Blocking Agent with gentle agitation overnight at 5°C in a cold storage room or for 1 h at room temperature. Rabbit monoclonal anti- phosphorylated BTK (Tyr-223) antibody (p-BTK; Novus Biologicals, #NB100-79907), rabbit monoclonal BTK antibody (Cell Signaling Technology, Inc., #3533), rabbit polyclonal phosphorylated AKT (Ser-473) antibody (p-AKT; Cell Signaling Technology, Inc., #9271), rabbit monoclonal AKT (pan) (C67E7) antibody (Cell Signaling Technology, Inc., #4691), rabbit polyclonal phosphorylated p44/42 MAPK (ERK1/2) (Thr-202/Tyr-204) antibody (p-ERK1/2; Cell Signaling Technology, Inc., #9101), rabbit monoclonal p44/42 MAPK (ERK1/2) (137F5) antibody (Cell Signaling Technology, Inc., #4695), rabbit monoclonal phosphorylated PLCγ2 (Tyr-759) (E9E9Y) antibody (p-PLCγ2; Cell Signaling Technology, Inc., #50535), rabbit monoclonal PLCγ2 (E5U4T) antibody (Cell Signaling Technology, Inc., #55512), mouse monoclonal phosphorylated IκBα (Ser-32/36) (5A5) antibody (p-IκBα; Cell Signaling Technology, Inc., #9246), rabbit monoclonal IκBα (44D4) antibody (Cell Signaling Technology, Inc., #4812), rabbit polyclonal phosphorylated PKCβ (phospho-Thr-641) antibody (p-PKCβ; Signalway Antibody LLC, #11172), rabbit monoclonal IRF4 (D9P5H) antibody (Cell Signaling Technology, Inc., #15106), rabbit monoclonal BCL6 (D65C10) antibody (Cell Signaling Technology, Inc., #5650), rabbit monoclonal c-MYC (D84C12) antibody (Cell Signaling Technology, Inc., #5605), and rabbit monoclonal GAPDH (14C10) antibody (Cell Signaling Technology, Inc., #2118) were used. The PVDF membranes were immersed in TBS-T and washed three times with shaking at room temperature for 10 min, then incubated with secondary antibody with shaking for 1 h at room temperature. The secondary antibody used was anti-rabbit-IgG horseradish peroxidase (HRP)-linked antibody (Cell Signaling Technology, #7074) or goat anti-rabbit immunoglobulins/HRP (Dako, P0448). The PVDF membranes were washed three times with shaking at room temperature for 10 min and were treated with ECL^TM Advance Western Blotting Detection Kit (GE Healthcare Life Sciences, #RPN2135) for chemiluminescent detection according to the manufacturer’s instruction. Lumino-image analyzer (LAS-1000 Plus system, Fuji Photo Film Co., Ltd.) and Image Reader LAS-1000 Lite version 1.3 (Fuji Photo Film Co., Ltd.) were used to visualize bands. The densitometry analysis described the ratio of phosphorylated to total BTK protein. […] 5.04 (GraphPad Software, Inc.).

U-2932 cells = assay: as above; assay type: cell-based, human
Method: as §3, §4

TMD8 xenograft tumor = assay: Gene set enrichment analysis (GSEA) of TMD8 xenograft microarray data; assay type: in vivo, mouse
CSK = CSK (Homo sapiens, UniProt P41240); assay: KinAffinity cell-based binding assay using PBMC; parameters: purchased Carna Biosciences Inc
ERBB2 = ERBB2 (Homo sapiens, UniProt P04626); assay: Z'-Lyte kinase inhibition assay; assay type: biochemical; parameters: purchased Thermo Fisher Scientific (Invitrogen Z'-Lyte service); conditions: 60 min preincubation
Method: In all the assays, each test compound was preincubated with peptide/kinase mixture or kinase/antibody mixture for 60 min at room temperature before adding the ATP solution or AlexaFluor labeled Tracer to initiate the 60-min incubation of the reactants.

[3] = GSEA report for tirabrutinib 10, 10 mg/kg vs vehicle
[4] = GSEA report for vehicle, tirabrutinib 10 mg/kg vs vehicle

Sequence of CSK (P41240 whole entry): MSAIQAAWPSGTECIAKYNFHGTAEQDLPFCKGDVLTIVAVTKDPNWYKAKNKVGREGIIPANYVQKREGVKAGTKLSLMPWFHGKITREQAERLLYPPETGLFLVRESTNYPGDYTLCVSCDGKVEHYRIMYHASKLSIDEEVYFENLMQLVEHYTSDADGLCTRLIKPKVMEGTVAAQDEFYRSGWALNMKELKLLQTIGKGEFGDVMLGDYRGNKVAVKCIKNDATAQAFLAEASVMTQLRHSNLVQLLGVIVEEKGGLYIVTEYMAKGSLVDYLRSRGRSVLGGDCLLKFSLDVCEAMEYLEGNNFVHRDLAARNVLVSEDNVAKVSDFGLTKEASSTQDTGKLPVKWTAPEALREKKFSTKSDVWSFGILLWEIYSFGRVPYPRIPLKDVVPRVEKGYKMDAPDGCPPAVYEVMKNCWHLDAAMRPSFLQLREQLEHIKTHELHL
Sequence of ERBB2 (P04626 23-1255): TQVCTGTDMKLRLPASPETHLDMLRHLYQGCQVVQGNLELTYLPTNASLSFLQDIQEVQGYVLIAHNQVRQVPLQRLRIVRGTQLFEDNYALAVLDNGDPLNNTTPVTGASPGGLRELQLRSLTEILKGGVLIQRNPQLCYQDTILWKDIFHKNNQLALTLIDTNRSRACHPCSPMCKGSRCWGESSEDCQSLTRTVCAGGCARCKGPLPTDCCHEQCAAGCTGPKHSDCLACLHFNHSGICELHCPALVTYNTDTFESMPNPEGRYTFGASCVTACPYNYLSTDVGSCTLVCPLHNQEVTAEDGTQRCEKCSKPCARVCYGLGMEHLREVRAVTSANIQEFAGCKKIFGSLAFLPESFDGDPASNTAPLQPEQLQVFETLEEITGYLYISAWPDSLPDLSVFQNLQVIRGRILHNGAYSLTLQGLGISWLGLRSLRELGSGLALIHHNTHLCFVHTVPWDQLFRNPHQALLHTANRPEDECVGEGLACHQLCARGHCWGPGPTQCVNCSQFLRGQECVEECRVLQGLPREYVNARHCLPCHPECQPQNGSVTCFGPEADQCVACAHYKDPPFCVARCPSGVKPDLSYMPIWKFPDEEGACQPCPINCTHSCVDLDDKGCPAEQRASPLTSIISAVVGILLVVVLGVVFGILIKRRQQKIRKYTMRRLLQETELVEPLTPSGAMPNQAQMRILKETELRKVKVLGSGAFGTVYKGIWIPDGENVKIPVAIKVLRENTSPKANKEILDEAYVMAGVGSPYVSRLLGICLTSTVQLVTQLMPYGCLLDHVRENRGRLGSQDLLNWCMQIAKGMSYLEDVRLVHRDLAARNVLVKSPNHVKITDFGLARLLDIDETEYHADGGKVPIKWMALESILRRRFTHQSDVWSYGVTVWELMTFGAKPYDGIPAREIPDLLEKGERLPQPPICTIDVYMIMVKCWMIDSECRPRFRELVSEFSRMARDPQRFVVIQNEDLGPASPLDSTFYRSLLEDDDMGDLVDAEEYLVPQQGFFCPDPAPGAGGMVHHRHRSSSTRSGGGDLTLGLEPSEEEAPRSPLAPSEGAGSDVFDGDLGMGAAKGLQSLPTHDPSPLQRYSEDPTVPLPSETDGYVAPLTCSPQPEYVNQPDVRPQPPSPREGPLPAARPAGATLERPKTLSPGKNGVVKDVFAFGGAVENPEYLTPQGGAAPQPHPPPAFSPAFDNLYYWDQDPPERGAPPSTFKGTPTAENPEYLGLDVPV

SMILES: CC#CC(=O)N1CC[C@@H](n2c(=O)n(-c3ccc(Oc4ccccc4)cc3)c3c(N)ncnc32)C1 [Tirabrutinib]
- IC50 (B-cells in human PBMC): 13.8 nM
- inhibition of anti-CD3/CD28-stimulated T-cell activation (CD69) (T-cells in human PBMC): did not inhibit
- effect on the BT system (B-cell growth, production of IgG, IL-6, IL-17A, TNFα) [1]: concentration-dependent inhibitory effect
- effect in other BioMAP evaluation systems [2]: no significant effect
- p-AKT at Ser-473 (TMD8 cells; 1 μM): inhibition
- p-IκBα at S32/36 (TMD8 cells; 1 μM, 4 h): inhibited
- p-ERK (TMD8 cells; 1 h, 10-300 nM): inhibited
- phosphorylation of PLCγ2 at Tyr-759 (TMD8 cells; 1 h, 10-300 nM): inhibited
- AKT signaling (p-AKT Ser-473) (U-2932 cells; 1 μM): did not indicate inhibition
- p-IκBα at S32/36 (U-2932 cells; 1 μM, 4 h): inhibited
- p-ERK (U-2932 cells; 1 h, 10-300 nM): not clear
- phosphorylation of PLCγ2 at Tyr-759 (U-2932 cells; 1 h, 10-300 nM): inhibited
- p-ERK (U-2932 cells; 4 h, 10-300 nM): significant inhibition
- IRF4, MYC, and mTORC1 pathway-related genes (GSEA) (TMD8 xenograft tumor; 10 mg/kg vs vehicle): downregulated
- NES DESCARTES_FETAL_LUNG_LYMPHOID_CELLS (TMD8 xenograft tumor; [3]): 2.406
- NES DESCARTES_FETAL_STOMACH_LYMPHOID_CELLS (TMD8 xenograft tumor; [3]): 2.57
- NES GOBP_CYTOKINE_PRODUCTION_INVOLVED_IN_INFLAMMATORY_RESPONSE (TMD8 xenograft tumor; [3]): 2.462
- NES MORI_PLASMA_CELL_DN (TMD8 xenograft tumor; [3]): 2.456
- NES REACTOME_GENERATION_OF_SECOND_MESSENGER_MOLECULES (TMD8 xenograft tumor; [3]): 2.407
- NES ELVIDGE_HIF1A_TARGETS_DN (TMD8 xenograft tumor; [4]): -2.295
- NES GSE29614_CTRL_VS_DAY7_TIV_FLU_VACCINE_PBMC_DN (TMD8 xenograft tumor; [4]): -2.25
- NES MENSE_HYPOXIA_UP (TMD8 xenograft tumor; [4]): -2.505
- NES QI_HYPOXIA (TMD8 xenograft tumor; [4]): -2.398
- NES TSANG_PBMC_FLUVIRIN_PANDEMRIX_ADULT_CORR_WITH_CELL_FREQ_CD27HI_CD38HI_CD20_NEG_PLASMABLASTS_AND_CD38PLUS_OF_IGD_CD27PLUS_MEM_B_CELLS_7DY_POSITIVE (TMD8 xenograft tumor; [4]): -2.3945
- Kd (CSK): > 3000 nM

SMILES: C=CC(=O)N1CCC([C@@H]2CCNc3c(C(N)=O)c(-c4ccc(Oc5ccccc5)cc4)nn32)CC1 [Zanubrutinib]
- IC50 (ERBB2): 34.8 nM
